Experiments:
Type in all cases: in vivo
[1] = system: giant foxtail (Setaria faberii); assay: Test A pre-/postemergence greenhouse herbicide test, visual injury rating 0-100; details: 1000 g ai/ha
How it was run: (§1)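 Seeds sown in loam soil–sand blend; preemergence directed soil spray and, simultaneously, postemergence spray on plants 2 to 10 cm tall at one- to two-leaf stage. Compounds formulated in non-phytotoxic solvent mixture with surfactant. Injury rated visually versus untreated controls after ~10 days in greenhouse.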

[2] = system: pigweed (Amaranthus retroflexus); assay: as above; details: 1000 g ai/ha
How it was run: as §1

[3] = system: wheat (Triticum aestivum); assay: as above; details: 1000 g ai/ha
How it was run: as §1

[4] = system: morningglory (Ipomoea spp.); assay: as above; details: 1000 g ai/ha
How it was run: as §1

[5] = system: velvetleaf (Abutilon theophrasti); assay: as above; details: 1000 g ai/ha
How it was run: as §1

[6] = system: barnyardgrass (Echinochloa crus-galli); assay: as above; details: 1000 g ai/ha
How it was run: as §1

[7] = system: large (Lg) crabgrass (Digitaria sanguinalis); assay: as above; details: 1000 g ai/ha
How it was run: as §1

corn (Zea mays) = assay: as above; details: 1000 g ai/ha
How it was run: as §1

[8] = system: chickweed (common chickweed, Stellaria media); assay: Test C postemergence greenhouse test, plant response rating 0-100; details: for Plant response rating, Chickweed: scale 0 to 100
Excerpt: (§2) At the same time, plants selected from these crop and weed species and also winter barley (Hordeum vulgare), bermudagrass (Cynodon dactylon), downy bromegrass (Bromus tectorum), canarygrass (Phalaris minor), cocklebur (common cocklebur, Xanthium strumarium), woolly cupgrass (Eriochloa villosa), deadnettle (henbit deadnettle, Lamium amplexicaule), green foxtail (Setaria viridis), goosegrass (Eleusine indica), surinam grass (Brachiaria decumbens), windgrass (Apera spica-venti), chickweed (common chickweed, Stellaria media), kochia (Kochia scoparia), and wild oat (Avena fatua), were planted in pots containing Redi-Earth® planting medium (Scotts Company, 14111 Scottslawn Road, Marysville, Ohio 43041) comprising spaghnum peat moss, vermiculite, wetting agent and starter nutrients and treated with postemergence applications of test chemicals formulated in the same manner. Plants ranged in height from 2 to 18 cm (1- to 4-leaf stage) for postemergence treatments. Treated plants and controls were maintained in a greenhouse for 13 to 15 days, after which time all species were compared to controls and visually evaluated. Plant response ratings, summarized in Table C, are based on a scale of 0 to 100 where 0 is no effect and 100 is complete control. A dash (-) response means no test result.

wild oat (Avena fatua) = assay: as above; details: for Plant response rating, Oat, Wild: scale 0 to 100
Excerpt: as §2

kochia (Kochia scoparia) = assay: as above; details: for Plant response rating, Kochia: scale 0 to 100
Excerpt: as §2

[9] = system: galium (catchweed bedstraw, Galium aparine); assay: Test C pre-/postemergence greenhouse test, plant response rating 0-100; details: Postemergence; for Plant response rating, Galium: scale 0 to 100
How it was run: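 After treatment, pots stay in the greenhouse 13–15 days before each species is compared with untreated controls and given a 0–100 visual score. Preemergence seeds are in loam blended with sand; postemergence plants, 1–4 leaves, are in peat-based medium.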

SMILES | Plant response rating (0 to 100 scale), Foxtail, Giant ([1]; Postemergence) | Plant response rating (0 to 100 scale), Foxtail, Giant ([1]; Preemergence) | Plant response rating (0 to 100 scale), Pigweed ([2]; Postemergence) | Plant response rating (0 to 100 scale), Pigweed ([2]; Preemergence) | Plant response rating (0 to 100 scale), Wheat ([3]; Postemergence) | Plant response rating (0 to 100 scale), Wheat ([3]; Preemergence) | Plant response rating (0 to 100 scale), Morningglory ([4]; Postemergence) | Plant response rating (0 to 100 scale), Morningglory ([4]; Preemergence) | Plant response rating (0 to 100 scale), Velvetleaf ([5]; Postemergence) | Plant response rating (0 to 100 scale), Velvetleaf ([5]; Preemergence) | Plant response rating (0 to 100 scale), Barnyardgrass ([6]; Postemergence) | Plant response rating (0 to 100 scale), Barnyardgrass ([6]; Preemergence) | Plant response rating (0 to 100 scale), Crabgrass, Large ([7]; Postemergence) | Plant response rating (0 to 100 scale), Crabgrass, Large ([7]; Preemergence) | Plant response rating (0 to 100 scale), Corn (corn (Zea mays); Postemergence) | Plant response rating (0 to 100 scale), Corn (corn (Zea mays); Preemergence) | Plant response rating (0 to 100), Chickweed ([8]; 62 g ai/ha) | Plant response rating (0 to 100), Chickweed ([8]; 125 g ai/ha) | Plant response rating, Chickweed ([8]; 250 g ai/ha) | Plant response rating (0 to 100), Oat, Wild (wild oat (Avena fatua); 62 g ai/ha) | also measured
Cn1cc(C(=O)c2ccccc2)c(-c2cc(Br)cc(Br)c2)n1 [Compound 53] | 0 | 0 | 100 | 90 | 0 | 0 | 0 | 0 | 90 | 60 | 0 | 0 | 0 | 0 | 0 | 0 | 50 | 50 | 100 | 0 | Plant response rating, Chickweed ([8]; 500 g ai/ha): 100; Plant response rating (0 to 100), Oat, Wild (wild oat (Avena fatua); 125 g ai/ha): 0; Plant response rating, Oat, Wild (wild oat (Avena fatua); 250 g ai/ha): 0; Plant response rating, Oat, Wild (wild oat (Avena fatua); 500 g ai/ha): 0; Plant response rating (0 to 100), Kochia (kochia (Kochia scoparia); 62 g ai/ha): 25; Plant response rating (0 to 100), Kochia (kochia (Kochia scoparia); 125 g ai/ha): 45; Plant response rating, Kochia (kochia (Kochia scoparia); 250 g ai/ha): 60; Plant response rating, Kochia (kochia (Kochia scoparia); 500 g ai/ha): 60; Plant response rating (0 to 100), Galium ([9]; 62 g ai/ha): 0; Plant response rating (0 to 100), Galium ([9]; 125 g ai/ha): 0; Plant response rating, Galium ([9]; 250 g ai/ha): 0; Plant response rating, Galium ([9]; 500 g ai/ha): 10
Fc1ccccc1NN=C(c1ccccc1)c1c[nH]nc1-c1cc(Cl)cc(Cl)c1 [Compound 57] | 0 | 0 | 90 | 90 | 0 | 0 | 0 | 0 | 100 | 80 | 0 | 0 | 0 | 0 | 0 | 0 | 100 | 100 | 100 | 0 | Plant response rating (0 to 100), Chickweed ([8]; 31 g ai/ha): 60; Plant response rating (0 to 100), Oat, Wild (wild oat (Avena fatua); 125 g ai/ha): 0; Plant response rating, Oat, Wild (wild oat (Avena fatua); 250 g ai/ha): 0; Plant response rating (0 to 100), Kochia (kochia (Kochia scoparia); 62 g ai/ha): 65; Plant response rating (0 to 100), Kochia (kochia (Kochia scoparia); 125 g ai/ha): 65; Plant response rating, Kochia (kochia (Kochia scoparia); 250 g ai/ha): 80; Plant response rating (0 to 100), Galium ([9]; 31 g ai/ha): 0; Plant response rating (0 to 100), Galium ([9]; 62 g ai/ha): 0; Plant response rating (0 to 100), Galium ([9]; 125 g ai/ha): 0; Plant response rating, Galium ([9]; 250 g ai/ha): 0
Clc1cc(Cl)cc(-c2n[nH]cc2C(=NNc2ccccc2Cl)c2ccccc2)c1 [Compound 66] | 0 | 0 | 80 | 80 | 0 | 0 | 0 | 0 | 90 | 80 | 0 | 0 | 0 | 0 | 0 | 0 | 100 | 100 | 100 | 0 | Plant response rating, Chickweed ([8]; 500 g ai/ha): 100; Plant response rating (0 to 100), Oat, Wild (wild oat (Avena fatua); 125 g ai/ha): 0; Plant response rating, Oat, Wild (wild oat (Avena fatua); 250 g ai/ha): 0; Plant response rating, Oat, Wild (wild oat (Avena fatua); 500 g ai/ha): 0; Plant response rating (0 to 100), Kochia (kochia (Kochia scoparia); 62 g ai/ha): 60; Plant response rating (0 to 100), Kochia (kochia (Kochia scoparia); 125 g ai/ha): 65; Plant response rating, Kochia (kochia (Kochia scoparia); 250 g ai/ha): 75; Plant response rating, Kochia (kochia (Kochia scoparia); 500 g ai/ha): 95; Plant response rating (0 to 100), Galium ([9]; 62 g ai/ha): 0; Plant response rating (0 to 100), Galium ([9]; 125 g ai/ha): 0; Plant response rating, Galium ([9]; 250 g ai/ha): 0; Plant response rating, Galium ([9]; 500 g ai/ha): 5

Source: patent publication US10167262B2, “Herbicidal substituted 3-arylpyrazoles” (FMC CORPORATION, priority 2014, dated 2019)
